Measured values reported in patent US20130216666A1, “CASHEW NUT SHELL LIQUID WITH IMPROVED STABILITY” (IDEMITSU KOSAN CO., LTD., priority 2010, published 2013).
Read-outs that look alike come from different tables or passages of the source.

Key:
[1] = Inhibition of decarboxylation reaction in unheated cashew nut shell liquid formulation (silica), phosphoric acid / phosphate; type: physicochemical; details: 80° C.; for Anacardic Acid 15:1 Composition (%) / Anacardic Acid 15:1 concentration / Anacardic Acid 15:2 Composition (%) / Anacardic Acid 15:2 concentration / Anacardic Acid 15:3 Composition (%) / Anacardic Acid 15:3 concentration / Cardanol 15:1 Composition (%) / Cardanol 15:1 concentration / Cardanol 15:2 Composition (%) / Cardanol 15:2 concentration / Cardanol 15:3 Composition (%) / Cardanol 15:3 concentration: 10% by weight in unheated CNSL, mixed with silica
Method: 10 g of silica (Sipernat 22) was placed into each of beakers. […] The sodium dihydrogen phosphate was added as an aqueous solution.

[2] = 80° C.; for Anacardic Acid 15:1 Composition (%) / Anacardic Acid 15:1 concentration / Anacardic Acid 15:2 Composition (%) / Anacardic Acid 15:2 concentration / Anacardic Acid 15:3 Composition (%) / Anacardic Acid 15:3 concentration / Cardanol 15:1 concentration / Cardanol 15:2 Composition (%) / Cardanol 15:2 concentration / Cardanol 15:3 Composition (%) / Cardanol 15:3 concentration: 10% by weight in unheated CNSL
[3] = Inhibition of decarboxylation reaction in feed; details: 10% by weight in unheated CNSL, 80° C.; for Anacardic Acid 15:1 Composition (%) / Anacardic Acid 15:1 concentration / Anacardic Acid 15:2 Composition (%) / Anacardic Acid 15:2 concentration / Anacardic Acid 15:3 Composition (%) / Anacardic Acid 15:3 concentration / Cardanol 15:1 Composition (%) / Cardanol 15:1 concentration / Cardanol 15:2 Composition (%) / Cardanol 15:2 concentration / Cardanol 15:3 Composition (%) / Cardanol 15:3 concentration: silica composition 1% by weight in feed;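 note: ethyl acetate extract of test feed analysed by reversed-phase C18 HPLC with absorbance detection at 280 nm, giving component composition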
Method: The analysis was carried out under the conditions of a solvent composition of acetonitrile: water: acetic acid =80:20:1 (based on volume), a flow rate of 2 ml/min, a temperature of 25° C., and an absorbance of 280 nm.
Samples were taken from the beakers after 3 days and analyzed for composition by HPLC.
For HPLC analysis, soluble fractions of the test feed was extracted with ethyl acetate and then filtered and dried to concentrate it to 5 mg/ml.

O=P(O)(O)O [Phosphoric Acid, phosphoric acid]
Anacardic Acid 15:1 Composition (%) ([1]; Day 0): 40.20%
Anacardic Acid 15:1 concentration ([1]; Day 0): 563.78 ppm
Anacardic Acid 15:2 Composition (%) ([1]; Day 0): 14.00%
Anacardic Acid 15:2 concentration ([1]; Day 0): 196.40 ppm
Anacardic Acid 15:3 Composition (%) ([1]; Day 0): 32.21%
Anacardic Acid 15:3 concentration ([1]; Day 0): 451.72 ppm
Cardanol 15:1 Composition (%) ([1]; Day 0): 5.74%
Cardanol 15:1 concentration ([1]; Day 0): 80.56 ppm
Cardanol 15:2 Composition (%) ([1]; Day 0): 2.45%
Cardanol 15:2 concentration ([1]; Day 0): 34.39 ppm
Cardanol 15:3 Composition (%) ([1]; Day 0): 5.39%
Cardanol 15:3 concentration ([1]; Day 0): 75.66 ppm
Anacardic Acid 15:1 Composition (%) ([1]; Day 3): 38.30%
Anacardic Acid 15:1 concentration ([1]; Day 3): 496.13 ppm
Anacardic Acid 15:2 Composition (%) ([1]; Day 3): 13.34%
Anacardic Acid 15:2 concentration ([1]; Day 3): 172.83 ppm
Anacardic Acid 15:3 Composition (%) ([1]; Day 3): 30.69%
Anacardic Acid 15:3 concentration ([1]; Day 3): 397.52 ppm
Cardanol 15:1 Composition (%) ([1]; Day 3): 7.46%
Cardanol 15:1 concentration ([1]; Day 3): 96.68 ppm
Cardanol 15:2 Composition (%) ([1]; Day 3): 3.19%
Cardanol 15:2 concentration ([1]; Day 3): 41.27 ppm
Cardanol 15:3 Composition (%) ([1]; Day 3): 7.01%
Cardanol 15:3 concentration ([1]; Day 3): 90.79 ppm
inhibition of the decarboxylation ([1]; formulation with silica, 10% by weight, 3 days): significant inhibition
Anacardic Acid 15:1 Composition (%) ([2]; Day 0): 32.73%
Anacardic Acid 15:1 concentration ([2]; Day 0): 978 ppm
Anacardic Acid 15:2 Composition (%) ([2]; Day 0): 18.69%
Anacardic Acid 15:2 concentration ([2]; Day 0): 559 ppm
Anacardic Acid 15:3 Composition (%) ([2]; Day 0): 42.99%
Anacardic Acid 15:3 concentration ([2]; Day 0): 1285 ppm
Cardanol 15:1 concentration ([2]; Day 0): 46 ppm
Cardanol 15:2 Composition (%) ([2]; Day 0): 1.26%
Cardanol 15:2 concentration ([2]; Day 0): 38 ppm
Cardanol 15:3 Composition (%) ([2]; Day 0): 2.78%
Cardanol 15:3 concentration ([2]; Day 0): 83 ppm
Anacardic Acid 15:1 Composition (%) ([2]; Day 3): 32.55%
Anacardic Acid 15:1 concentration ([2]; Day 3): 968 ppm
Anacardic Acid 15:2 Composition (%) ([2]; Day 3): 18.61%
Anacardic Acid 15:2 concentration ([2]; Day 3): 554 ppm
Anacardic Acid 15:3 Composition (%) ([2]; Day 3): 42.80%
Anacardic Acid 15:3 concentration ([2]; Day 3): 1273 ppm
Cardanol 15:1 concentration ([2]; Day 3): 46 ppm
Cardanol 15:2 Composition (%) ([2]; Day 3): 1.41%
Cardanol 15:2 concentration ([2]; Day 3): 42 ppm
Cardanol 15:3 Composition (%) ([2]; Day 3): 3.10%
Cardanol 15:3 concentration ([2]; Day 3): 92 ppm
inhibition of the decarboxylation ([2]; 10% by weight, three days): significant inhibition
stability of the shell liquid in the feed (progress of the decarboxylation) ([3]; in feed, 3 days): stable in the feed without progress of the decarboxylation
Anacardic Acid 15:1 Composition (%) ([3]; Day 0): 40.28%
Anacardic Acid 15:1 concentration ([3]; Day 0): 363.92 ppm
Anacardic Acid 15:2 Composition (%) ([3]; Day 0): 13.76%
Anacardic Acid 15:2 concentration ([3]; Day 0): 124.28 ppm
Anacardic Acid 15:3 Composition (%) ([3]; Day 0): 33.11%
Anacardic Acid 15:3 concentration ([3]; Day 0): 299.13 ppm
Cardanol 15:1 Composition (%) ([3]; Day 0): 5.39%
Cardanol 15:1 concentration ([3]; Day 0): 48.69 ppm
Cardanol 15:2 Composition (%) ([3]; Day 0): 2.31%
Cardanol 15:2 concentration ([3]; Day 0): 20.83 ppm
Cardanol 15:3 Composition (%) ([3]; Day 0): 5.15%
Cardanol 15:3 concentration ([3]; Day 0): 46.52 ppm
Anacardic Acid 15:1 Composition (%) ([3]; Day 3): 39.75%
Anacardic Acid 15:1 concentration ([3]; Day 3): 345.72 ppm
Anacardic Acid 15:2 Composition (%) ([3]; Day 3): 13.57%
Anacardic Acid 15:2 concentration ([3]; Day 3): 118.06 ppm
Anacardic Acid 15:3 Composition (%) ([3]; Day 3): 32.67%
Anacardic Acid 15:3 concentration ([3]; Day 3): 284.18 ppm
Cardanol 15:1 Composition (%) ([3]; Day 3): 5.88%
Cardanol 15:1 concentration ([3]; Day 3): 51.13 ppm
Cardanol 15:2 Composition (%) ([3]; Day 3): 2.51%
Cardanol 15:2 concentration ([3]; Day 3): 21.87 ppm
Cardanol 15:3 Composition (%) ([3]; Day 3): 5.62%
Cardanol 15:3 concentration ([3]; Day 3): 48.85 ppm
